Active and inactive are the calls of the source. The rule behind the calls is not given here.
How the values were obtained:
[1] = test system: HCT-116; experiment: Induction of apoptosis in human HCT-116 cells assessed as viable cells at 5 uM measured after 48 hrs by Annexin V-FITC/PI staining based flow cytometry (reference value: 94.9%); type: functional; conditions: read-out: Activity
[2] = test system: RAW264.7; experiment: Anti-inflammatory activity against mouse RAW264.7 cells assessed as decrease in LPS-induced IL-6 secretion measured after 24 hrs by ELISA; type: functional, cell-based; conditions: dose 5-20 µM
[3] = test system: MGC-803; experiment: Antimetastatic activity against human MGC-803 cells assessed as inhibition of cell migration measured after 24 hrs by transwell assay; type: functional, cell-based; conditions: dose 2.5-15 µM
[4] = test system: HCT-116; experiment: Downregulation of STAT3 protein expression in human HCT-116 cells at 2.5 to 10 uM measured after 48 hrs by western blot assay; type: functional, cell-based; conditions: dose 2.5-10 µM
[5] = Cytotoxicity against human HCT-116 cells assessed as cell viability at <36 uM measured after 24 hrs by CCK8 assay; type: cell-based; conditions: read-out: Activity
[6] = Half life in Sprague-Dawley rat at 100 mg/kg, ig measured for 24 hrs by LC-MS analysis; type: ADME, organism-based; conditions: in vivo, po
[7] = AUC (0 to t) in Sprague-Dawley rat at 100 mg/kg, ig measured for 24 hrs by LC-MS analysis; type: ADME, organism-based; set-up: time 24 hrs, dose 100 mg/kg; conditions: in vivo, po
[8] = test system: HCT-116; experiment: Induction of apoptosis in human HCT-116 cells assessed as viable cells at 20 uM measured after 48 hrs by Annexin V-FITC/PI staining based flow cytometry (reference value: 94.9%); type: functional; conditions: read-out: Activity
[9] = test system: HCT-116; experiment: Induction of apoptosis in human HCT-116 cells assessed as late apoptotic cells at 20 uM measured after 48 hrs by Annexin V-FITC/PI staining based flow cytometry (reference value: 1.42%); type: functional
[10] = test system: MGC-803; experiment: Antiproliferative activity against human MGC-803 cells assessed as inhibition of cell proliferation measured after 72 hrs by MTT assay; type: functional, cell-based; conditions: MGC-803, 72 h
[11] = test system: HCT-116; experiment: Induction of apoptosis in human HCT-116 cells assessed as early apoptotic cells at 2.5 uM measured after 48 hrs by Annexin V-FITC/PI staining based flow cytometry assay (reference value: 2.14%); type: functional
[12] = test system: HGC-27; experiment: Antiproliferative activity against human HGC-27 cells assessed as inhibition of cell proliferation measured after 72 hrs by MTT assay; type: functional, cell-based; conditions: HGC-27, 72 h
[13] = test system: HCT-116; experiment: Induction of ROS generation in human HCT-116 cells at 2.5 to 15 uM measured after 36 hrs by DCFH-DA staining based fluorescence microscopic analysis; type: functional, cell-based; conditions: dose 2.5-15 µM
[14] = molecular target: Signal transducer and activator of transcription 3 (Homo sapiens) (UniProt P40763); experiment: Inhibition of STAT3 in human HCT-116 cells assessed as inhibition of nuclear translocation of STAT3 at 10 uM measured after 3 hrs by Hoechst/fluorochrome-conjugated antibody staining based confocal laser microscopy; type: cell-based
[15] = Cmax in Sprague-Dawley rat at 100 mg/kg, ig measured for 24 hrs by LC-MS analysis; type: ADME, organism-based; set-up: route intragastric, time 24 hrs, dose 100 mg/kg; conditions: in vivo, po
[16] = Toxicity in Kunming mouse assessed as animal survival at 1000 mg/kg, ig measured for 14 days; type: organism-based; conditions: in vivo, po, 336 h, time 14 day
[17] = test system: HCT-116; experiment: Induction of apoptosis in human HCT-116 cells assessed as early apoptotic cells at 10 uM measured after 48 hrs by Annexin V-FITC/PI staining based flow cytometry (reference value: 2.14%); type: functional
[18] = test system: MCF7; experiment: Antiproliferative activity against human MCF7 cells assessed as inhibition of cell proliferation measured after 72 hrs by MTT assay; type: functional, cell-based; conditions: MCF7, 72 h
[19] = test system: HCT-116; experiment: Induction of apoptosis in human HCT-116 cells assessed as downregulation of cytochrome C expression at 2.5 to 10 uM measured after 48 hrs by western blot assay; type: functional, cell-based; conditions: dose 2.5-10 µM
[20] = Toxicity in Kunming mouse assessed as hair condition at 1000 mg/kg, ig measured for 14 days; type: organism-based; conditions: in vivo, po, 336 h, time 14 day
[21] = test system: HCT-116; experiment: Induction of apoptosis in human HCT-116 cells assessed as upregulation of Bax expression at 2.5 to 10 uM measured after 48 hrs by western blot assay; type: functional, cell-based; conditions: dose 2.5-10 µM
[22] = test system: HCT-116; experiment: Antiproliferative activity against human HCT-116 cells assessed as inhibition of cell proliferation measured after 72 hrs by MTT assay; type: functional, cell-based; conditions: HCT-116, 72 h
[23] = test system: MGC-803; experiment: Induction of apoptosis in human MGC-803 cells at 2.5 to 20 uM measured after 48 hrs by Annexin V-FITC/PI staining based flow cytometry; type: functional, cell-based; conditions: dose 2.5-20 µM
[24] = test system: HCT-116; experiment: Induction of apoptosis in human HCT-116 cells assessed as increase in apoptotic cells with twinkling cell nuclei at 1.25 to 10 uM measured after 48 hrs by Hoechst 33342 staining based light blue fluorescence analysis; type: functional; conditions: dose 1.25-10 µM
[25] = test system: HCT-116; experiment: Antimetastatic activity against human HCT-116 cells assessed as inhibition of cell invasion measured after 36 hrs by transwell assay; type: functional, cell-based; conditions: dose 2.5-15 µM
[26] = Ratio of AUC (0 to t) to observed AUC (0 to infinity) in Sprague-Dawley rat at 100 mg/kg, ig measured for 24 hrs by LC-MS analysis; type: ADME, organism-based; conditions: in vivo, po
[27] = Tmax in Sprague-Dawley rat at 100 mg/kg, ig measured for 24 hrs by LC-MS analysis; type: ADME, organism-based; conditions: in vivo, po
[28] = test system: HCT-116; experiment: Induction of apoptosis in human HCT-116 cells assessed as necrotic cells at 2.5 uM measured after 48 hrs by Annexin V-FITC/PI staining based Flowcytometry assay (reference value: 1.5%); type: functional
[29] = test system: HCT-116; experiment: Induction of cell cycle arrest in human HCT116 cells assessed as accumulation of cells at G0/G1 phase at 20 uM measured after 48 hrs by propidium iodide staining based flow cytometry analysis (reference value: 70.45%); type: functional
[30] = test system: HCT-116; experiment: Inhibition of clonogenicity in human HCT-116 cells assessed as reduction in colony formation measured after 9 days by crystal violet staining based analysis; type: functional, cell-based; conditions: dose 1.25-10 µM, time 9.0 day
[31] = test system: HCT-116; experiment: Cytotoxicity against human HCT-116 cells assessed as reduction in cell viability at <=20 uM measured after 48 hrs by CCK8 assay; type: cell-based; conditions: hct-116, 48 h
[32] = test system: MGC-803; experiment: Inhibition of clonogenicity in human MGC-803 cells assessed as reduction in colony formation measured after 6 days by crystal violet staining based analysis; type: functional, cell-based; conditions: dose 2-16 µM, time 6.0 day
[33] = test system: A549; experiment: Antiproliferative activity against human A549 cells assessed as inhibition of cell proliferation measured after 72 hrs by MTT assay; type: functional, cell-based; conditions: A549, 72 h
[34] = test system: HCT-116; experiment: Induction of apoptosis in human HCT-116 cells assessed as plasmatorrhexis at 2.5 to 15 uM measured after 48 hrs by Giemsa staining method; type: functional, cell-based; conditions: dose 2.5-15 µM
[35] = test system: MGC-803; experiment: Cytotoxicity against human MGC-803 cells assessed as reduction in cell viability at <=10 uM measured after 48 hrs by CCK8 assay; type: cell-based; conditions: mgc-803, 48 h
[36] = test system: HCT-116; experiment: Induction of apoptosis in human HCT-116 cells assessed as necrotic cells at 5 uM measured after 48 hrs by Annexin V-FITC/PI staining based flow cytometry (reference value: 1.5%); type: functional

Sequence of Signal transducer and activator of transcription 3 (Homo sapiens) (P40763 whole entry): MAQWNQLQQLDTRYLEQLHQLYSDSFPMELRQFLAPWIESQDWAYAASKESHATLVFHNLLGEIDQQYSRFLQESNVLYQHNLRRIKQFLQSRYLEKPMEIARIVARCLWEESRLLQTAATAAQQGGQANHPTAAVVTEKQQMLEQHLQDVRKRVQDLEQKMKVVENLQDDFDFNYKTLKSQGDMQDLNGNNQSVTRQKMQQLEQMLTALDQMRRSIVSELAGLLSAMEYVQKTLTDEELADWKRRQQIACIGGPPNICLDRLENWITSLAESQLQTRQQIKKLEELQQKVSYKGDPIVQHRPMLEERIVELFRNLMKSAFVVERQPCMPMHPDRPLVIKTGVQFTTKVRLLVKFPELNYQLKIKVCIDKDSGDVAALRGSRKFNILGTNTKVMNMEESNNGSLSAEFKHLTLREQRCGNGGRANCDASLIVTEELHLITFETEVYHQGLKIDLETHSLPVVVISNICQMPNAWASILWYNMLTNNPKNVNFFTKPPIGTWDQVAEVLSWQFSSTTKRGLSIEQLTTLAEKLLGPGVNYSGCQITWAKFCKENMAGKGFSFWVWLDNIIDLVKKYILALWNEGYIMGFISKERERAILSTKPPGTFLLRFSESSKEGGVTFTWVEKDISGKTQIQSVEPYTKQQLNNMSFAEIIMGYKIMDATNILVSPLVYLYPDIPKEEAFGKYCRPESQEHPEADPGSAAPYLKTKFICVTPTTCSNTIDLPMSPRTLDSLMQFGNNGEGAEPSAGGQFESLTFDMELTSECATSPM

With `Cc1c(Cl)cccc1Nc1ccccc1C(=O)NCCc1c[nH]c2ccccc12` the viability at 5 µM [1] was 87.8%, the Activity [2] was “Dose-Dependent Effect” and the Activity [3] was “Dose-Dependent Effect”. The inhibition [4] was “Active”, the viability at 24 h [5] was no less than 80% and the half-life [6] was 7.58 h. It also gave an AUC(0-t) at 24 h [7] of 1.67 µg·h/mL, a viability at 20 µM [8] of 45.9% and an Activity [9] of 8.95%. For the same compound, the IC50 [10] was 9.96 µM, the Activity [11] was 3.48% and the IC50 [12] was 15.5 µM. The Activity [13] was “Active”, the inhibition [14] was “Active” and the Cmax [15] was 0.149 µg/mL. For the same compound, the Activity [16] was “Non-Toxic”, the Activity [17] was 33% and the IC50 [18] was 12.8 µM. For the same compound, the Activity [19] was “Active”, the Activity [20] was “Non-Toxic” and the Activity [21] was “Active”. The IC50 [22] was 8.42 µM, the Activity [23] was “inactive” and the Activity [24] was “Active”. For the same compound, the Activity [25] was “Dose-Dependent Effect”, the “Ratio AUC” value [26] was 0.87 and the Tmax [27] was 1 h. The Activity [28] was 2.07%, the Activity [29] was 84.74% and the inhibition [30] was “Dose-Dependent Effect”. The Activity [31] was “Non-Toxic”, the inhibition [32] was “Dose-Dependent Effect” and the IC50 [33] was 18.6 µM. The Activity [34] was “Active”, the Activity [35] was “Non-Toxic” and the Activity [36] was 2.81%.

Source: ChEMBL document CHEMBL4818998, “Melatonin derivatives combat with inflammation-related cancer by targeting the Main Culprit STAT3” (Eur J Med Chem, 2021)
